What all share (type): physicochemical, human
A short description of series [1]: LC/MS of blood plasma sample: time from blood collection to centrifugation (Table D). The settings on record: for Rate of increase or decrease: detection intensity relative to 1 at 15 minutes; for Rate of increase or decrease / Increase or decrease: blood collection to centrifugation; for Increase or decrease: detection intensity; for Rate of increase or decrease (second value, decrease) / Rate of increase or decrease (first value, increase): different from individual to individual, relative to 1 at 15 minutes, collection to centrifugation; for Rate of increase or decrease (second value, decrease): individuals with decrease; for Rate of increase or decrease (first value, increase): individuals with increase. Put shortly:
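Detection intensities are expressed relative to samples centrifuged 15 min after collection (=1), measured by electrospray LC/MS in MRM mode (Discovery HS F5-3, 40 °C, formic acid water/acetonitrile gradient at 0.25 mL/min). EDTA blood from a healthy donor was held at 4 °C, centrifuged at 4 °C, 3000 rpm, 15 min, and plasma frozen.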

The nature of series [2]: LC/MS of blood plasma sample: time from blood collection to cooling of blood (Table E). Also on record: key to Rate of increase or decrease / Rate of increase or decrease (first value, increase): detection intensity relative to ≤1 min to cooling = 1. Conditions: for Rate of increase or decrease: detection intensity relative to 1 at 1 minute or less, blood collection to cooling 5 minutes; for Increase or decrease: detection intensity, blood collection to cooling 5 minutes or more vs 1 minute or less. As for the experimental part: At room temperature, 5 mL of blood from a healthy subject was taken into a blood-collecting vessel containing EDTA, and the blood-collecting vessel was inverted for mixing, then cooled, and allowed to stand at 4° C. Here, in order to investigate how the detection intensity of molecules contained in the sample was affected in a case where the time to cooling was set to 5 minutes or more as compared to that in a case where the time to cooling was set to 1 minute or less, preparations were performed under both the former condition and the latter condition. After standing, the blood sample was subjected to centrifugation under a condition of 4° C., 3000 rpm, and 15 minutes. […] After centrifugation, the blood-collecting vessel was left to stand at room temperature for 30 minutes, and the blood plasma was isolated during this 30 minutes. The obtained blood plasma sample was frozen and stored. Here, in order to investigate how the detection intensity of molecules contained in the sample was affected in cases where freezing and thawing was performed 4 times, 6 times, and 10 times after freezing as compared to that in a case where freezing and thawing was performed 2 times after freezing, freezing and thawing was performed under the respective conditions of 2, 4, 6, and 10 times.
Frozen blood plasma samples and serum samples were subjected to GC/MS or LC/MS. In GC/MS, the blood plasma samples and serum samples were subjected to methoxymation and trimethylsilylation and then introduced to GC-MS.
Analysis column: Discovery HS F5-3 (inner diameter of 2.1 mm, length of 150 mm, film thickness of 3 μm) (Sigma-Aldrich)
Column temperature: 40° C.
(A) 0.1% formic acid (dissolved in water)
(B) 0.1% formic acid (dissolved in acetonitrile)
Flow velocity: 0.25 mL/min
Ionization method: electrospray
Temperature: • Desolvation Line (DL) temperature: 250° C. • Heat block temperature: 400° C. • Interface temperature: 300° C.
Gas flow rate: • Nebulizer gas flow rate: 3.0 L/min • Drying gas flow rate: 10.0 L/min • Heating gas flow rate: 10.0 L/min
Mode: multiple reaction monitoring (MRM)
The rate of increase or decrease in Table E is the value of detection intensity relative to 1 that is the detection intensity in a case where the time from blood collection to cooling is set to 1 minute or less.

Series [3] can be described thus: LC/MS of blood plasma sample: number of times of freezing and thawing (Table F). The settings on record: for Rate of increase or decrease: detection intensity relative to 1 at 2 times; for Increase or decrease: detection intensity. The procedure, abridged:
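Values are detection intensities normalised to 1 for plasma thawed twice, compared against 4, 6 and 10 freeze-thaw cycles. Measured by electrospray LC/MS in MRM mode, formic acid water/acetonitrile mobile phase, column at 40° C. Plasma came from EDTA blood, cooled to 4° C and spun at 3000 rpm for 15 min.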

Series [4] in a line: LC/MS of serum sample: number of times of freezing and thawing (Table M). Details: key to Rate of increase or decrease: detection intensity relative to 1 at 2 freeze-thaw cycles. Put shortly: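 Values are detection intensities relative to serum thawed twice, versus 4, 6 or 10 freeze-thaw cycles. Serum came from blood spun at room temperature, 3500 rpm for 5 minutes. Analysis: electrospray LC/MS in MRM mode, Discovery HS F5-3 column, 40° C, 0.1% formic acid in water and acetonitrile.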

Series [5] is described as follows: GC/MS of serum sample: time from centrifugation to isolation (Table H). Put shortly:
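Values are GC/MS (EI, MRM) detection intensities of methoxymated/trimethylsilylated serum, normalised to 1 for the 30-min sample. Serum was isolated 30 min, 1 h or 6 h after room-temperature centrifugation (3500 rpm, 5 min) of blood.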

The nature of series [6]: LC/MS of serum sample: time from blood collection to centrifugation (Table J). Put shortly: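 Detection intensities are expressed relative to 1 for samples centrifuged 15 min after blood collection; centrifugation was at room temperature, 3500 rpm, 5 min. Frozen serum was run by electrospray LC-MS in MRM mode, with 0.1% formic acid water/acetonitrile at 0.25 mL/min on a 40 °C F5 column.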

The nature of series [7]: GC/MS of serum sample: number of times of freezing and thawing (Table I). Conditions: serum, GC/MS. The procedure, abridged: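 Detection intensities are ratios to the value after two freeze–thaw cycles, which is set as 1, compared against 4, 6 and 10 cycles. Analysis used methoxymation and trimethylsilylation derivatization, then GC/MS with EI ionization and multiple reaction monitoring on a BPX5 column. Serum came from blood held at room temperature and spun at 3500 rpm for 5 min.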

Series [8] can be described thus: GC/MS of serum sample: time from blood collection to centrifugation (Table G). The settings on record: blood collection to centrifugation. Put shortly:
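Values express detection intensity as a ratio to the sample centrifuged 15 minutes after blood collection (taken as 1). Serum was derivatized by methoxymation and trimethylsilylation, then analysed by electron-ionization GC/MS using multiple reaction monitoring on a BPX5 column ramped from 60 to 330° C.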

Setting [9] is: freezing and thawing 4 times vs 2 times.

The structures appear in SMILES notation.

As for `NCCCC(=O)O` [4-Aminobutyric acid], the “Rate of increase or decrease” value in series [1] (after 6 hours) is 0.70; in series [2] it was 1.50; in series [3] (freezing and thawing 4 times), 1.76. The figures for the Increase or decrease result in series [1] (after 6 hours vs 15 minutes), in series [2] and in series [3] (setting [9]) were “Decrease”, “Increase” and “Increase”, respectively.
For `N[C@@H](CCC(=O)N[C@@H](CS)C(=O)O)C(=O)O` [5-Glutamylcysteine], the Increase or decrease entry in series [1] (after 4 hours vs 15 minutes) is given as “Different from individual”. For the same molecule, in series [1] (after 4 hours), the “Rate of increase or decrease (second value, decrease)” value came to 0.70 and the “Rate of increase or decrease (first value, increase)” value came to 1.79. In addition, in series [2], the “Rate of increase or decrease” value was 1.33 and the Increase or decrease result is on record as “Increase”. For the same molecule, the Increase or decrease result in series [3] (setting [9]) is recorded as “Increase”.
Turning to `CN(C)C(N)=NCCC[C@H](N)C(=O)O` [Asymmetric dimethylarginine], the Increase or decrease result in series [1] (after 12 hours vs 15 minutes) was “Different from individual”; in series [2], “Increase”; in series [4] (serum sample, LC/MS, detection intensity vs 2 times of freezing and thawing) it was “Decrease”. The “Rate of increase or decrease (second value, decrease)” value in series [1] (after 12 hours) amounted to 0.66. The “Rate of increase or decrease (first value, increase)” value in series [1] (after 12 hours) amounted to 1.78. The “Rate of increase or decrease” value is recorded as 1.31 in series [2]; 0.69 in series [4] (6 times of freezing and thawing, detection intensity relative to 1 at 2 times). Moreover, in series [4] (serum sample, LC/MS, detection intensity changed by 30% or more vs 2 times of freezing and thawing), the “Number of times when compound is affected” value is on record as 6 times.
On to `Nc1ccn([C@@H]2O[C@H](COP(=O)(O)O)[C@@H](O)[C@H]2O)c(=O)n1` [Cytidine monophosphate], for which the “Rate of increase or decrease” value in series [1] (after 4 hours) came to 1.75; in series [2], 1.34; in series [3] (freezing and thawing 4 times) it was 1.98. The Increase or decrease result in series [1] (after 4 hours vs 15 minutes), in series [2] and in series [3] (setting [9]) was “Increase” in each case.
As to `NCCc1ccc(O)c(O)c1` [Dopamine], the “Rate of increase or decrease” value in series [5] (detection intensity relative to 1 at 30 minutes, after 1 hour) was found to be 0.64; in series [1] (after 6 hours) it was 0.53; in series [6] (after 12 hours from blood collection to centrifugation, detection intensity relative to 1 at 15 minutes), 1.39; in series [7] (detection intensity relative to 1 at 2 times, freezing and thawing 4 times), 0.53; in series [2], 1.43; in series [8] (detection intensity relative to 1 at 15 minutes, after 4 hours) it was 1.50. The Increase or decrease result is listed as “Decrease” in series [5] (detection intensity, after 1 hour vs 30 minutes); “Decrease” in series [1] (after 6 hours vs 15 minutes); “Increase” in series [6] (serum sample, LC/MS, detection intensity vs 15 minutes from blood collection to centrifugation); “Decrease” in series [7] (detection intensity, freezing and thawing 4 times vs 2 times); “Increase” in series [2]; “Increase” in series [8] (detection intensity, after 4 hours vs 15 minutes). The “Time when compound is affected” value in series [6] (serum sample, LC/MS, time from blood collection to centrifugation, detection intensity changed by 30% or more vs 15 minutes) is “After 12 hours”.
On to `Nc1nc2c(ncn2[C@@H]2O[C@H](COP(=O)(O)O)[C@@H](O)[C@H]2O)c(=O)[nH]1` [Guanosine monophosphate], for which the “Rate of increase or decrease” value was determined as 1.89 in series [1] (after 4 hours); 1.95 in series [3] (freezing and thawing 6 times). Moreover, the Increase or decrease result in series [1] (after 4 hours vs 15 minutes) was “Increase”; in series [2] it was “Different from individual”; in series [3] (freezing and thawing 6 times vs 2 times), “Increase”. Also, the “Rate of increase or decrease (second value, decrease)” value in series [2] (different from individual to individual, individuals with decrease, relative to 1 at 1 minute or less, collection to cooling 5 minutes) was 0.59. Further, the “Rate of increase or decrease (first value, increase)” value in series [2] (different from individual to individual, individuals with increase, relative to 1 at 1 minute or less, collection to cooling 5 minutes) came out at 1.47.
With `C[S+](CC[C@H](N)C(=O)[O-])C[C@H]1O[C@@H](n2cnc3c(N)ncnc32)[C@H](O)[C@@H]1O` (stereo partly shown) [S-adenosylmethionine], the “Rate of increase or decrease” value in series [1] (after 6 hours) was 0.62; in series [2] it was 1.60; in series [3] (freezing and thawing 4 times), 1.33. Moreover, the Increase or decrease result in series [1] (after 6 hours vs 15 minutes) is reported as “Decrease”; in series [2], “Increase”; in series [3] (setting [9]), “Increase”.

Source of the values: patent US20220146526A1, “METHOD FOR EVALUATING SAMPLE, ANALYSIS METHOD, METHOD FOR DETECTING DEGRADED SAMPLE, MARKER FOR DETECTING DEGRADED BLOOD PLASMA SAMPLE, AND MARKER FOR DETECTING DEGRADED SERUM SAMPLE” (SHIMADZU CORPORATION, priority 2019, published 2022).
